# Results from publication PMC11134387, “Cancer-Stem-Cell Phenotype-Guided Discovery of a Microbiota-Inspired Synthetic Compound Targeting NPM1 for Leukemia” (JACS Au, 2024).
# “Also recorded” adds a separate entry of the source.
# How the values were obtained:
# [1] = system: MCF-7-derived mamospheres; experiment: Formation of MCF-7-derived mamospheres (CSC tumorspheres); type: cell-based
# Description: (BD Biosciences, Franklin Lakes, NJ, USA). All cells were maintained at 37 °C in a humidified incubator in an atmosphere of 5% CO2, and passaged every 2–3 days.
# Additionally, they were cultured using RPMI media (Gibco/Life Technologies; Grand […]
# (§1) Colonospheres, mamospheres and colony formation unit assays. 30.000 cells per well of MCF-7 cells (mamos pheres), HCT-116 cells (colonospheres) and CD34+ cells from patients (colony formation units) were seeded in serum free non- adherent medium or […]
# (§2) MethoCult (Stem Cell). […]
# [2] = system: primary CD34+ cells from healthy donors; experiment: CFU-E colony-forming unit assay, healthy donors; type: cell-based; details: Homo sapiens
# Description: (§3) Considering the inhibitory capacity of UCM-13369 on AML cell lines (shown in Figure 3A), the therapeutic potential was assessed in primary CD34+ cells from AML patients. Two ex vivo models were used from AML patients and healthy donors: CD34+ liquid HSC (hematopoietic stem cell) culture as a short-term model and CFU-E (colony-forming unit–erythroid) as a midterm model.
# (§4) The test compound was diluted in PBS. […]
# (§5) Primary cells. 1x10^6/mL total mononuclear bone marrow cells (as source of CD34+ HSCs) of healthy donors and AML patients were used. They were cultured using Stem SpanTM supplement with pencillin/streptomycin (500 U/ml), TPO (10 µg/mL), SCF (10 µg/mL), FLT3 (10 µg/mL), IL-6 (10 µg/mL) and IL-3 (10 µg/mL). After 24 h fresh medium was added. After 72 h in maintenance cells were ready to start the assays. All cells wer e maintained at 37 °C in a humidified incubator in an atmosphere of 5% CO2.
# as §1, §2
# [3] = system: primary HSCs from healthy donors; experiment: CD34+ liquid HSC short-term culture, healthy donors; type: cell-based; details: Homo sapiens
# Description: as §3, §4
# as §5, with “CO2. […]” for “CO2.”
# [4] = system: primary HSCs from WT NPM1 AML patients; experiment: CD34+ liquid HSC short-term culture, WT NPM1 AML patients; type: cell-based; details: Homo sapiens, n = 3
# Description: as §3, §4
# as §5, with “CO2. […]” for “CO2.”
# OCI-AML3-ffLuc-GFP cells = experiment: AML xenograft mouse model (OCI-AML3-ffLuc-GFP in NSG mice); type: in vivo
# Description: Based on the encouraging results obtained in ex vivo models of AML, we further assessed the therapeutic potential of the new NPM1 inhibitor in vivo. Prior to the evaluation of the compound in an animal model of AML, in vivo pharmacokinetic studies were addressed. Following a single intraperitoneal administration of UCM-13369 at a dose of 25 mg/kg, levels of 200–600 μg/L were detected in mouse peripheral blood up to 6 h (Figure 6A). Plasma protein binding of the compound in mouse serum was measured using an equilibrium dialysis assay, indicating a bound fraction of 83 ± 1%. Next, the efficacy of the compound was evaluated in immunodeficient mice after injection of OCI-AML3-ffLuc-GFP cells as an AML animal model.
# An AML xenograft mouse model was used for the in vivo study of efficacy. Female 6- to 8-week-old NOD.Cg-Prkdcscid Il2rgtm1Wjl/SzJ (NSG) mice (Vivotecnia, Madrid, Spain) were inoculated intravenously by tail vein injection with OCI-AML3-ffLuc-GFP cells (1 × 10^6). Four days later, the mice were randomized into two groups of 10 animals: the first group received intraperitoneal injections of vehicle (0.9% saline solution) 5 days a week; the second group received intraperitoneal injections of 25 mg/kg or 50 mg/kg UCM-13369 five times weekly for 3 weeks. The mice were monitored for tumor burden, distribution, and engraftment every week by IVIS whole-body bioluminescence imaging. Bioimaging of MM burden in vivo was performed by IVIS Imaging system (Caliper Life Science). A solution of luciferin (D-luciferin monosodium salt, Thermo Fisher) in PBS was injected (150 mg/kg, ip), and luminescence signal was determined after 10 min. The data were analyzed using the Living Image 4.2 (Caliper Life Science) software.
# [5] = system: human renal proximal tubule epithelial cells (hRPT Epi Cells); experiment: Dose-response viability in renal proximal tubule epithelial cells; type: cell-based; details: dose-response viability assay; listed as UCM-13369
# Source text: Scale bar: 100 μm. (E ) Dose-response curve of UCM-13369 in human renal proximal
structure (smiles),measurement,setting,value
"COc1ccc(C2Cc3[nH]c4ccccc4c3C(CCNCC3CC3)C2N)cc1 (stereo not shown) [4b, 4-{2-[(Cyclopropylmethyl)amino]ethyl}-2-(4-methoxyphenyl)-2,3,4,9-tetrahydro-1H-carbazol-3-amine]",inhibition at 5 µM,"[1]; Homo sapiens, MCF7, @5 µM (footnote d), read-out: Inhibition of tumorsphere formation (%) MCF-7",100%
same,Formation of tumorspheres (in words),"[1]; MCF-7 mamospheres and HCT-116 colonospheres, noncytotoxic concentration",completely inhibit
same,IC50,[2],1.73 µM
same,IC50,[3],6.4 µM
same,IC50,[4],3.77 µM
same,Reduction in tumor mass (in words),"OCI-AML3-ffLuc-GFP cells; 25 mg/kg, data not shown",negligible
same,"Tumor cell infiltration of bone marrow, H&E staining (in words)",OCI-AML3-ffLuc-GFP cells; 50 mg/kg,less tumor cell infiltration
same,"Survival, treated vs untreated animals (in words)","OCI-AML3-ffLuc-GFP cells; 50 mg/kg, Kaplan-Meier, listed as UCM-13369",no significant differences; also recorded: no difference
same,Tumor infiltration vs untreated group at end point (in words),"OCI-AML3-ffLuc-GFP cells; 50 mg/kg, bioluminescence",reduction of tumor infiltration
same,Toxicity in hRPT Epi Cells (in words),[5],showed toxicity in kidney cells; also recorded: revealed toxicity
